Assay results reported in publication PMC7839768 (Chemistry (Weinheim an Der Bergstrasse, Germany), 2020).

Experiments:
[1] = target: hGal-3 (Homo sapiens, UniProt P17931); assay: ITC; format: binding
[2] = target: hGal-1 (Homo sapiens, UniProt P09382); assay: ITC; format: binding
Chain of hGal-1 (P09382 2-135): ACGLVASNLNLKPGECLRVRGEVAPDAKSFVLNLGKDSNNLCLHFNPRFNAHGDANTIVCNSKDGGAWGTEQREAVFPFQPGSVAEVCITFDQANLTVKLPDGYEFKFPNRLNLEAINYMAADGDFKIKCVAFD

Chain of hGal-3 (P17931 2-250): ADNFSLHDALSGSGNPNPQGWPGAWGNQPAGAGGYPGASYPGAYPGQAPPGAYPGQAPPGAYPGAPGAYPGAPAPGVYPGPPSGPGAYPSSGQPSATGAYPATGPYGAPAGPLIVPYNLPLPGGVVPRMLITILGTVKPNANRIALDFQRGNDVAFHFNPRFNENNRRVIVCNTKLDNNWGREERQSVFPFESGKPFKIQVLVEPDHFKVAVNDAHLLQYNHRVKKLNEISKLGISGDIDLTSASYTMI

CC(=O)N[C@H]1[C@H](O[C@H]2[C@@H](O)[C@@H](CO)O[C@@H](O[C@H]3[C@H](O)[C@@H](NC(C)=O)[C@H](OCCN=[N+]=[N-])O[C@@H]3CO)[C@@H]2O)O[C@H](CO)[C@@H](O[C@@H]2O[C@H](CO)[C@H](O)[C@H](O)[C@H]2O)[C@@H]1O [compound 1, 2‐Azidoethyl (β‐D‐galactopyranosyl)‐(1→4)‐(2‐acetamido‐2‐deoxy‐β‐D‐glucopyranosyl)‐(1→3)‐(β‐D‐galactopyranosyl)‐(1→4)‐2‐acetamido‐2‐deoxy‐β‐D‐glucopyranoside]
Kd [1]: 5.6 ± 0.1 µM | Kd [2]: 94.7 ± 2.2 µM

OC[C@H]1O[C@@H]([Se][Se][C@@H]2O[C@H](CO)[C@H](O)[C@H](O)[C@H]2O)[C@H](O)[C@@H](O)[C@H]1O [DSeDG]
Kd [1]: 2800 ± 180 µM

CC(=O)N[C@H]1[C@H](O[C@H]2[C@@H](O)[C@@H](CO)O[C@@H](O[C@H]3[C@H](O)[C@@H](O)[C@H](OCCCN)O[C@@H]3CO)[C@@H]2O)O[C@H](CO)[C@@H](O)[C@@H]1O[C@@H]1O[C@H](CO)[C@H](O)[C@H](O)[C@H]1O [compound 2, 3‐Aminopropyl (β‐D‐galactopyranosyl)‐(1→3)‐(2‐acetamido‐2‐deoxy‐β‐D‐glucopyranosyl)‐(1→3)‐(β‐D‐galactopyranosyl)‐(1→4)‐β‐D‐glucopyranoside]
Kd [1]: 28.1 ± 0.5 µM | Kd [2]: 175 ± 3.2 µM

OC[C@H]1O[C@@H]([Se][C@@H]2O[C@H](CO)[C@H](O)[C@H](O)[C@H]2O)[C@H](O)[C@@H](O)[C@H]1O [SeDG]
Kd [1]: 93.1 ± 2.6 µM | Kd [2]: 108 ± 1.4 µM
